# B1: Diphosphomevalonate decarboxylase (Rattus norvegicus), Q62967 K27A (protein)
# chain: MASEKPQDLMVTCTAPVNIAVIKYWGARDEALILPINPSLSVTLHQDQLKTTTTAAISKDFTEDRIWLNGREEDVGQPRLQACLREIRRLARKRRSTGDGDALPLSLGYKVHVASVNNFPTAAGLASSAAGYACLAYTLARVYGVEGDLSEVARRGSGSACRSLYGGFVEWQMGEQADGKDSIARQIAPEWHWPQLRVLILVVSAEKKPTGSTVGMQTSVATSTLLKFRAESIVPERMKEMTRCIQEQDFQAFAQLTMKDSNQFHATCLDTFPPISYLNDTSRRIIQLVHRFNAHHGQTKVAYTFDAGPNAVIFTLEDTVAEFVAAVRHSFPPAANGDKFLKGLQVAPVLLSDELKTSLATEPSPGGVQYIIATQVGPGPQVLDDPHHHLLGPDGLPQRDL
# B2: Diphosphomevalonate decarboxylase (Rattus norvegicus), Q62967 R154A (protein)
# chain: MASEKPQDLMVTCTAPVNIAVIKYWGKRDEALILPINPSLSVTLHQDQLKTTTTAAISKDFTEDRIWLNGREEDVGQPRLQACLREIRRLARKRRSTGDGDALPLSLGYKVHVASVNNFPTAAGLASSAAGYACLAYTLARVYGVEGDLSEVAARGSGSACRSLYGGFVEWQMGEQADGKDSIARQIAPEWHWPQLRVLILVVSAEKKPTGSTVGMQTSVATSTLLKFRAESIVPERMKEMTRCIQEQDFQAFAQLTMKDSNQFHATCLDTFPPISYLNDTSRRIIQLVHRFNAHHGQTKVAYTFDAGPNAVIFTLEDTVAEFVAAVRHSFPPAANGDKFLKGLQVAPVLLSDELKTSLATEPSPGGVQYIIATQVGPGPQVLDDPHHHLLGPDGLPQRDL
# Columns and labels:
# [1] = Inhibition of rat MDD
# Rattus norvegicus = species on record: Rattus norvegicus; experiment: Activity of wild type MDD in rat liver
# [2] = substrate: Nc1ncnc2c1ncn2[C@@H]1O[C@H](COP(=O)(O)OP(=O)(O)OP(=O)(O)O)[C@@H](O)[C@H]1O; experiment: (§1) Activity of MDD K27A mutant; conditions: Rattus norvegicus
# [3] = substrate: C[C@@](O)(CCOP(=O)(O)OP(=O)(O)O)CC(=O)O; experiment: as §1; conditions: Rattus norvegicus
# [4] = substrate: Nc1ncnc2c1ncn2[C@@H]1O[C@H](COP(=O)(O)OP(=O)(O)OP(=O)(O)O)[C@@H](O)[C@H]1O; experiment: (§2) Activity of MDD R154A mutant; conditions: Rattus norvegicus
# [5] = substrate: C[C@@](O)(CCOP(=O)(O)OP(=O)(O)O)CC(=O)O; experiment: as §2; conditions: Rattus norvegicus
molecule,measurement,setting,value
CC(O)(CCOP(=O)(O)OP(=O)(O)O)C(F)(F)C(=O)O (stereo unspecified),IC50,[1],7.5 µM
CC(C)(O)CCOP(=O)(O)OP(=O)(O)O,IC50,[1],60 µM
CC(O)(CCOP(=O)(O)OP(=O)(O)O)Cc1ccccc1 (stereo unspecified),IC50,[1],140 µM
C[C@@](O)(CCOP(=O)(O)OP(=O)(O)O)CC(=O)O,Km,Rattus norvegicus,36 µM
same,Vmax,Rattus norvegicus,6.6 µmol/min/mg
CC(O)(CCF)CCOP(=O)(O)OP(=O)(O)O (stereo unspecified),IC50,[1],50 µM
Nc1ncnc2c1ncn2[C@@H]1O[C@H](COP(=O)(O)OP(=O)(O)OP(=O)(O)O)[C@@H](O)[C@H]1O,Km,Rattus norvegicus,530 µM
CCC(O)(CCOP(=O)(O)OP(=O)(O)O)C(F)C(=O)O (stereo unspecified),IC50,[1],20 µM
CCCC(C)(O)CCOP(=O)(O)OP(=O)(O)O (stereo unspecified),IC50,[1],120 µM
CCC(C)(O)CCOP(=O)(O)OP(=O)(O)O (stereo unspecified),IC50,[1],80 µM
B1,Km,[2],1870 µM
same,Km,[3],750 µM
same,Vmax,[3],0.14 µmol/min/mg
B2,Km,[4],1400 µM
same,Km,[5],920 µM
same,Vmax,[5],0.34 µmol/min/mg

# From ChEMBL document CHEMBL1137532, “Mutation and inhibition studies of mevalonate 5-diphosphate decarboxylase” (Bioorg Med Chem Lett, 2007)
